Test results as given in patent US7632506B2, “Identification of new NY-ESO-1 epitopes recognized by CD4+ T-cells” (Ludwig Institute for Cancer Research, priority 2005, dated 2009).

Tests used:
[1] = test system: CD4+ T cell clones NW2337-CD4-1 and NW2337-CD4-10; assay: Peptide titration ELISPOT assay with overlapping NY-ESO-1 peptides; type: cell-based, human; settings: peptide 10 μM to 0.1 nM pulsed onto autologous EBV-B-cells
Experimental: (§1) The CD4^+ T cells were restimulated weekly with 1 μg/ml of the peptide being used. On day 12, each CD4^+ culture was assayed for NY-ESO-1 peptide recognition, using the ELISPOT assay of lager, et al., Proc. Natl. Acad. Sci. USA, 97(9):4760-4765 (2000), incorporated by reference. To elaborate on this procedure, flat-bottomed, 96-well nitrocellulose plates were coated with 5 μg/ml of anti-interferon-gamma antibody and incubated overnight at 4° C. After washing with PBS, plates were blocked with 10% human serum (HS) for 1 hour at 37° C. Depending on the effector:target ratio used, various numbers of presensitized CD4^+ T-cells were added to each well along with 5×10^4 autologous peptide pulsed EBV transfected B cells (“EBV-B cells”) serving as target cells and incubated for 16 hours at 37° C. in TCM without IL-2. Plates were then washed extensively (6 times with a solution of 0.05% Tween 20/PBS), and biotinylated anti-interferon-gamma detection antibody was added at a concentration of 0.5 μg/ml. After incubation for 2 h at 37° C., plates were washed and incubated with ABC-AP Vectastain for 1 hour. Plates were washed again and developed with substrate (BCIP/NPT) until blue spots were visible. The number of blue spots/well represented the proportion of NY-ESO-1 specific CD4^+ T-cells/well was finally counted under the microscope.
To further identify the exact epitope required for CD4^+ T cell recognition by these two CD4^+ T cell clones, a peptide titration assay was performed using overlapping NY-ESO-1 peptides (FIG. 2) at concentrations between 10 μM and 0.1 nM, pulsed onto autologous EBV-B-cells and tested in ELISPOT assays (FIG. 3).

[2] = test system: CD4+ T cell clones NW2337-CD4-1 and NW2337-CD4-10; assay: 51Cr release assay with peptide-pulsed EBV-B target cells; type: cell-based, human; settings: for recognition by clone NW2337-CD4-10: clone generated with p55-72
Experimental: In these experiments, exemplary clones NY-ESO-1 p49-66 specific CD4^+ T cell clone NW2337-CD4-1 and NY-ESO-1 p55-72 specific CD4^+ T cell clone NW2337-CD4-10 were characterized in ^51Chromium (^51Cr) release assays using peptides overlapping the sequence of each stimulation peptide. Standard ^51Cr release assay methods were used. Briefly, autologous EBV B cell target cells were labeled with 100 μCi Na2^51CrO4 for 2 hours, and pulsed with 18 mer or 20 mer NY-ESO-1 peptides (10 μg/ml) for 1 hour. Then, 1×10^3 target cells/well were incubated in 96 V- bottom microwell plates with effector cells at different E/T ratios for 4 h at 37° C. ^51Cr release was measured in the supernatant and the specific cytotoxicity was calculated using the standard methods. Polyclonal T-cell populations were preincubated with unlabeled K562 cells as competitors at a concentration of 40:1 in order to block non-specific effector reactions.
These experiments confirmed recognition of naturally presented NY-ESO-1 epitopes by the CD4+ T-cell clones.

CD4+ T cells [3] = assay: IFN-γ ELISPOT of CD4+ T cells presensitized with overlapping NY-ESO-1 18 mer peptides; type: cell-based, human; settings: for Patient T cells 1 / Patient T cells 2 / Patient T cells 3: IFN-γ ELISPOT; for Patient T cells 1: day 12, CD4+ T cells of patient 1, autologous peptide pulsed EBV-B cells as targets; for Patient T cells 2: day 12, CD4+ T cells of patient 2, autologous peptide pulsed EBV-B cells as targets; for Patient T cells 3: day 12, CD4+ T cells of patient 3, autologous peptide pulsed EBV-B cells as targets; for patients whose CD4+ T cells recognized the peptide: three patients tested
Experimental: Peripheral blood mono-nuclear cells (“PBMCs”) were separated from heparinized blood via Ficoll density gradient separation, using standard, art recognized techniques. Once this was done, the CD4^+ and CD8^+ T cells were separated from each other using magnetic cell sorting techniques which are well known to the art, producing CD4^+, CD8^+, and CD4^−/CD8^− cell populations.
A series of 18 mer peptides were prepared from the amino acid sequence of NY-ESO-1 as set forth in, e.g., U.S. Pat. No. 5,804,381, incorporated by reference. The peptides were designed to cover the entire sequence of NY-ESO-1, and to provide overlap.
The peptides were then individually pulsed to antigen presenting cells (“APCs”). These were CD4^−/CD8^− PBMCs taken from the same subjects who had provided the CD4^+ and CD8^+ cells. These APCs were irradiated with 3000 rads, and then pulsed with one of the peptides, at a concentration of 10 μg/ml, for 1 hour, in serum free medium. These APCs were then washed, and added to the CD4^+ cells. In the pulsing experiments, the peptides were solubilized in DMSO (100%) and then diluted with PBS to a final concentration of 10% DMSO. The CD4^+ cells had been cultured in a medium of L-arginine (242 mg/l), L-asparagene (50 mg/l), L-glutamine (300 mg/l), penicillin (10 IU/ml), streptomycin (100 μg/ml), 1% non-essential amino acids, 10% HS, and 10 ng/ml of recombinant human IL-2.
as §1
The EBV-B-cells were generated from each patients' PBMC following standard methods and maintained in RPMI 1640 medium supplemented with 10 mM Hepes buffer, L-arginine (242 mg/l), L-asparagine (50mg/l), L-glutamine (300 mg/l), penicillin (10 IU/ml), streptomycin (100 μg/ml), 1% non-essential amino acids, and 10% FCS. […] PBMC's or EBV-B-cells were molecularly typed for HLA expression using standard procedures.

CD4+ T cells [4] = assay: as above; type: cell-based, human; settings: patient NW2337, limiting dilution
NW2337 CD4+ T cells = assay: Cytokine ELISPOT assays (IFNγ, TNFα, IL4, IL10) of NW2337 CD4+ T cells; type: cell-based, human
Description: All ELISPOT assay described, supra were designed to detect IFN-γ secretion by the T cell clones following specific antigen stimulation. To determine the phenotype of the NY-ESO-1 specific CD4^+ T cell clones from patient NW2337, additional ELISPOT assays were designed to detect additional cytokines.
The NW2337 CD4^+ T cells were stimulated with either NY-ESO-1 p49-66 and p55-72 peptides and T cells secretion of IFNγ, TNFα, IL4 and IL10measured by ELISPOT assay. […] IL4 and IL10 was not secreted by any of the NY-ESO-1 specific CD4^+ T-cell clones tested following stimulation with NY-ESO-1 p49-66 and p55-72 peptides.

HLA-DQB1 03011 = target: T1, HLA-DQB1 03011 (Homo sapiens, UniProt P01909+P01920); assay: ELISPOT with peptide pulsed allogeneic EBV-B-cells of known HLA class II type (HLA restriction); type: cell-based; settings: only shared allele of the recognized peptide pulsed allogenic EBV-B cell lines
T1 construct: peptide pulsed allogeneic EBV-B-cells with known HLA class II types as stimulator cells; endogenous in cells; host or cells: allogeneic patient-derived EBV-transformed B-cell lines (NW-2078, NW-2081, NW-2395, NW-2234, NW-2337, NW-1100, MZ-1257)
Experimental: In order to determine the HLA molecule to which the novel NY-ESO-1 peptides described above bind, the NW2337 CD4^+ T-cell clones NW2337-CD4-1 and NW2337-CD4-10, were tested in ELISPOT assays using a range of peptide pulsed allogeneic EBV-B-cells with known HLA class II types as stimulator cells as indicated in the following Table. The EBV-B-cell lines were HLA typed using standard methods as described above.
The NW2337-CD4-1 clone recognized allogenic peptide pulsed EBV-B cells from patients NW-2078, NW-2081, NW-2395, NW-2234, NW-2337, NW-1100 and MZ-1257. The allogenic EBV-B cells were recognized by the T cells when pulsed exogenously with either the NY-ESO-1 p49-66 or p55-72 as observed with autologous EBV-B cells described above. […] None of the EBV-B-cells lines that were not recognized by the T cells expressed this MHC allele. […] Again the NY-ESO-1 positive MZ-1257 EBV-B-cell line was recognized with or without exogenous peptide.

[5] = autologous EBV B cells pulsed with peptide 10 μg/ml

T1 sequence (P01920 33-261, other chains not shown): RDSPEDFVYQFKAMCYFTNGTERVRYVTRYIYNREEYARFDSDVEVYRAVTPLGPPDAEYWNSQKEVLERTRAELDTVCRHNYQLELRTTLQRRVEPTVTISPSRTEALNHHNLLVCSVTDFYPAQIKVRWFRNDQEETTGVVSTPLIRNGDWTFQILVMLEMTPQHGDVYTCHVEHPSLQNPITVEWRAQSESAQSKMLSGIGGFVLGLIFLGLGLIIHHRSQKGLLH

p51-70: overlapping 20 mer NY-ESO-1 peptide, amino acids 51-70 (ARASGPGGGAPRGPHGGAAS; UniProt P78358 51-70, looked up, fragment)
recognition by clone NW2337-CD4-1 [1]: recognized

61-80: overlapping 20 mer NY-ESO-1 peptide, amino acids 61-80 (PRGPHGGAASGLNGCCRCGA; UniProt P78358 61-80, looked up, fragment) [Peptide 61-80]
recognition by clone NW2337-CD4-10 [1]: able to recognize

P61-78: synthetic 18 mer peptide, amino acids 61-78 of NY-ESO-1 (PRGPHGGAASGLNGCCRC; UniProt P78358 61-78, looked up, fragment) [Peptide P61-78]
recognition by clone NW2337-CD4-10 [2, 5]: crossreacted | recognition by clone NW2337-CD4-10 [1]: able to recognize | Patient T cells 1 (CD4+ T cells [3]): + (+ indicates >50 spots (all + scores indicated were >100 spots)) | Patient T cells 2 (CD4+ T cells [3]): + (+ indicates >50 spots (all + scores indicated were >100 spots)) | Patient T cells 3 (CD4+ T cells [3]): + (+ indicates >50 spots (all + scores indicated were >100 spots)) | patients whose CD4+ T cells recognized the peptide (CD4+ T cells [3]): all three patients

P49-66: synthetic 18 mer peptide, amino acids 49-66 of NY-ESO-1 (GAARASGPGGGAPRGPHG; UniProt P78358 49-66, looked up, fragment) [Peptide P49-66]
CD4+ T-cell clones generated by stimulation with peptide (CD4+ T cells [4]): 27 | lysis of peptide pulsed autologous NW-2337-EBV B-cell lines by clones NW-2337-CD4-1 and -4 [2]: efficiently lysed | recognition by clone NW2337-CD4-1 ([2]; autologous EBV B cells pulsed with peptide 10 μg/ml, clone generated with p49-66): recognized | recognition by clone NW2337-CD4-10 [2, 5]: did not crossreact | recognition by clone NW2337-CD4-1 [1]: recognized | IFN-γ secretion by stimulated T cell clones (NW2337 CD4+ T cells): produced | IL4 secretion by stimulated T cell clones (NW2337 CD4+ T cells): not secreted | IL10 secretion by stimulated T cell clones (NW2337 CD4+ T cells): not secreted | TNF-α secretion by stimulated T cell clones (NW2337 CD4+ T cells): produced | MHC class II allele presenting the peptide to NW2337-CD4-1 T cells (HLA-DQB1 03011): HLA-DQB1 03011 | Patient T cells 1 (CD4+ T cells [3]): + (+ indicates >50 spots (all + scores indicated were >100 spots)) | Patient T cells 2 (CD4+ T cells [3]): + (+ indicates >50 spots (all + scores indicated were >100 spots)) | Patient T cells 3 (CD4+ T cells [3]): + (+ indicates >50 spots (all + scores indicated were >100 spots)) | patients whose CD4+ T cells recognized the peptide (CD4+ T cells [3]): all three patients

p133-150: synthetic 18 mer peptide, amino acids 133-150 of NY-ESO-1 (LTIRLTAADHRQLQLSIS; UniProt P78358 133-150, looked up, fragment)
Patient T cells 1 (CD4+ T cells [3]): − (− indicates <50 spots) | Patient T cells 2 (CD4+ T cells [3]): − (− indicates <50 spots) | Patient T cells 3 (CD4+ T cells [3]): − (− indicates <50 spots)

p127-144: synthetic 18 mer peptide, amino acids 127-144 of NY-ESO-1 (TVSGNILTIRLTAADHRQ; UniProt P78358 127-144, looked up, fragment)
Patient T cells 1 (CD4+ T cells [3]): − (− indicates <50 spots) | Patient T cells 2 (CD4+ T cells [3]): − (− indicates <50 spots) | Patient T cells 3 (CD4+ T cells [3]): − (− indicates <50 spots)

P67-84: synthetic 18 mer peptide, amino acids 67-84 of NY-ESO-1 (GAASGLNGCCRCGARGPE; UniProt P78358 67-84, looked up, fragment) [Peptide P67-84]
Patient T cells 1 (CD4+ T cells [3]): − (− indicates <50 spots) | Patient T cells 2 (CD4+ T cells [3]): − (− indicates <50 spots) | Patient T cells 3 (CD4+ T cells [3]): − (− indicates <50 spots)
